{"source": "patent EP0658547B1", "about": "“N-pyrazolyl carbamate derivative, agricultural/horticultural fungicide containing the same as active ingredient and production intermediate thereof” (MITSUBISHI CHEMICAL CORPORATION, priority 1993, dated 1995)", "key": {"Erysiphe graminis": {"tested_on": "Erysiphe graminis", "assay": "Preventive activity on wheat powdery mildew (foliar application, spray inoculation)", "type": "in vivo", "conditions": "200 ppm active ingredient, wettable powder, foliar application on wheat plants (var. Norin No. 61), 7 to 10 days after inoculation", "description": "Test Example 1 Preventive activity on wheat powdery mildow\nWettable powders prepared according to the same manner as that described in Formulation Example 1 were diluted with water to the predetermined concentration and then applied by foliar application on wheat plants (var. Norin No. 61) at the 1 to 2 leaf stage grown in pots of 6 cm in diameter at a ratio of 10 ml per one pot. After the chemical solution was air-dried, a spore suspension obtained from the leaf of wheat infected with Erysiphe graminis was spray-inoculated. After inoculation, the seedling of wheat was allowed to stand at room temperature for 7 to 10 days.\nFor evaluation, the diseased area ratio of each leaf was measured and the preventive value was calculated from the following equation: The preventive value (%) = (average diseased area ratio in untreated plot) (- (average diseased area ratio in treated plot))/((average diseased area ratio in untreated plot))x 100 [formula]\nThe test compound No. cited in the Table 2 corresponds to the compound No. of Table 1."}, "Puccinia recondita": {"tested_on": "Puccinia recondita", "assay": "Preventive activity on wheat brown rust (foliar application, spray inoculation)", "type": "in vivo", "conditions": "200 ppm active ingredient, wettable powder, foliar application on wheat plants (var. Norin No. 61), moist chamber 22°C 15 hours, then 7 days", "description": "Test Example 2 Preventive activity on wheat brown Wettable powders prepared according to the same manner as that described in Formulation Example 1 were diluted with water to the predetermined concentration and then applied by foliar application on wheat plants (var. Norin No. 61) at the 1 to 2 leaf stage grown in pots of 6 cm in diameter at a ratio of 10 ml per one pot. After the chemical solution was air-dried, a spore suspension obtained by pulverizing the leaf of wheat infected with Puccinia recondita was spray-inoculated. After inoculation, the wheat seedling was maintained in a moist chamber at 22°C for 15 hours and was allowed to stand on a water tank in a green house for 7 days. For evaluation, the diseased area ratio of each leaf was measured and the preventive value was calculated from the following equation: The preventive value (%) = (average diseased area ratio in untreated plot) (- (average diseased area ratio in treated plot))/((average diseased area ratio in untreated plot))x 100 [formula]"}}, "data": [{"compound": "COC(=O)Nc1c(OCc2cc(C)ccc2C)c(C)nn1C", "note": "[compound No. 48, methyl N-{1,3-dimethyl-4-(2,5-dimethylbenzyloxy)pyrazole-5-yl} carbamate]", "values": [{"measurement": "Preventive value 1 (%)", "setting": "Erysiphe graminis", "value": 93, "unit": "%"}, {"measurement": "Preventive value 2 (%)", "setting": "Puccinia recondita", "value": 86, "unit": "%"}]}, {"compound": "C#CCN(C(=O)OC)c1c(OCc2cc(C)ccc2C)c(C)nn1C", "note": "[compound No. 50, methyl N-{1,3-dimethyl-4-(2,5-dimethylbenzyloxy)pyrazole-5-yl}-N-propargyl-carbamate]", "values": [{"measurement": "Preventive value 1 (%)", "setting": "Erysiphe graminis", "value": 100, "unit": "%"}, {"measurement": "Preventive value 2 (%)", "setting": "Puccinia recondita", "value": 100, "unit": "%"}]}, {"compound": "C#CCN(C(=O)OC)c1c(CON=C(C)c2ccc(C(F)(F)F)cc2)c(C)nn1C", "note": "[compound No. 169, methyl N-[1,3-dimethyl-4-{(α-methyl-4-trifluoromethyl-benzylidene)aminooxymethylpyrazole-5-yl}]-N-propargyl-carbamate]", "values": [{"measurement": "Preventive value 1 (%)", "setting": "Erysiphe graminis", "value": 100, "unit": "%"}, {"measurement": "Preventive value 2 (%)", "setting": "Puccinia recondita", "value": 100, "unit": "%"}]}]}
